Measurements as given in patent EP0506748B1, “AMINO ACIDS, PEPTIDES OR DERIVATIVES THEREOF COUPLED TO FATS” (COMMONWEALTH SCIENTIFIC AND INDUSTRIAL RESEARCH ORGANISATION, priority 1989, dated 1991).

Legend:
trypsin = target: T1, trypsin (Bos taurus, UniProt P00760); experiment: Protease treatment: digestion with trypsin, followed by HPLC; assay type: biochemical; conditions: TPCK trypsin, enzyme/substrate ratio 1:50, 0.2 M ammonium hydrogen carbonate, 37°C; product Z-Leu-Arg-OH
T1 sequence (P00760 24-246): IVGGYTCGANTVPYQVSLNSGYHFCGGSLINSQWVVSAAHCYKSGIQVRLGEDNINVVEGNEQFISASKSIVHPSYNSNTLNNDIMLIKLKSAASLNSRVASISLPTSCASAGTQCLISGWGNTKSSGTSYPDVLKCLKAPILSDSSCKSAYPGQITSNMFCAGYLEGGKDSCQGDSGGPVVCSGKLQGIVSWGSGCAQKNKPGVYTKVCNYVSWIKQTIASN
Protocol: Z-Gly-TRIS and Z-Ala-TRIS were incubated with papain, and Z-Leu-Arg-TRIS with trypsin, to test that the action of proteolytic enzymes could regenerate the starting compounds Z-Gly-OH, Z-Ala-OH and Z-Leu-Arg-OH respectively.
• a) Papain. Z-Ala-TRIS in 50 mmolar phosphate buffer pH 6.5 (650 ul) , 20 mM ethylene-diamine-tetraacetic acid (100 ul) and water to 1 ml. Activated papain (5mg/ml) was added to a final enzyme/substrate ratio of 1:50. The reaction was followed by HPLC on C18 reverse phase columns and the hydrolysis product identified by co-chromatography with standards. Blanks were incubated as above using water instead of enzyme solution. • b) Trypsin. Z-Leu-Arg-TRIS was incubated at a concentration between 2 and 10 mg/ml in 0.2 M ammonium hydrogen carbonate. Freshly prepared TPCK trypsin (1 mg/ml in water) was added to the solution giving a final enzyme/substrate ratio of 1:50. Samples were incubated at 37°C and aliquots examined by reverse phase HPLC. Additional amounts of enzyme were added as required.

RD10 cells = experiment: 3H-thymidine incorporation (mitogenic effect) in RD10 cells; assay type: cell-based; conditions: RD10 B-cell lymphoma
Protocol: (§1) ^3H-thymidine incorporation experiments were carried out in Linbro-Titertek microtitre plates (Flow Laboratories, Inc., U.S.A.) following the method of L. Bradley in "Selected Methods of Cellular Immunology (1980) Eds. B.B. Mishell and S.M. Shiigi; Publisher. W.H. Freeman and Co., U.S.A. pp156. The tests were carried out externally by Dr. D. Rathjen of Peptide Technology Ltd. Dee Why, N.S.W.
(§2) Cell lines tested were:- • 1. RD10; a B-cell lymphoma (obtained from the Centre for Immunology, Sydney University, Sydney, NSW. • 2. U937; a human monocyte-like3 histiocytic lymphoma (source: American Tissue Culture Collection).
(§3) RD10 cells (at a cell density 5x10^s/ml, 100 ul/well) were cultured for 20 hours at 37°C with 5% C02 in RPMI 1640 medium, supplemented with 10% Fetal Calf. Serum. Samples to be tested were mixed and sonicated with this medium at a concentration of 5000, 500, 50 and 5 ug/ml and 100 ul aliquots added to the cells. The cells were pulsed with 0.5 uCi/well of ^3H-thymidine and the plates incubated for four more hours before harvesting (Titertek Skatron harvester, Lier, Norway). Incorporated radioactivity was measured by liquid scintillation counting. All assays were performed in triplicate.

U937 cells = experiment: 3H-thymidine incorporation (mitogenic effect) in U937 cells; assay type: cell-based, human; conditions: for Thymidine incorporation of the U937 cells: U937 human monocyte-like histiocytic lymphoma, result in words, relative to control or to Z-Ala-TRIS-Tripalmitate
Protocol: as §1, §2, §3

Compound | hydrolysis with trypsin (trypsin) | ^3H-thymidine uptake by RD10 cells, increase in cell proliferation compared to control (RD10 cells; samples at 5000, 500, 50 and 5 ug/ml, 20 hours culture, 4 hours pulse, triplicate) [fold] | Thymidine incorporation of the U937 cells (U937 cells) | cytotoxic effects in U937 cells (U937 cells; at higher concentrations, from thymidine incorporation) | ^3H-thymidine uptake by RD10 cells, response compared with Z-Ala-TRIS-Tripalmitate (RD10 cells; result in words)
CC(C)C[C@H](NC(=O)OCc1ccccc1)C(=O)N[C@@H](CCCNC(=N)N)C(=O)NC(CO)(CO)CO [Z-Leu-Arg-TRIS] | slowly |  |  |  | 
CCCCCCCCCCCCCCCC(=O)OCC(COC(=O)CCCCCCCCCCCCCCC)(COC(=O)CCCCCCCCCCCCCCC)NC(=O)C(C)NC(=O)OCc1ccccc1 (stereo not drawn) [Z-Ala-TRIS-Tripalmitate, Z-Ala-TRIS-TRIPALMITATE] |  | 3.4 | close to control | slight cytotoxic effects | 
CCCCCCCCCCCCCCCC(=O)OCC(COC(=O)CCCCCCCCCCCCCCC)(COC(=O)CCCCCCCCCCCCCCC)NC(=O)C(C)N (stereo not drawn) [Ala-TRIS-Tripalmitate, Ala-TRIS-TRIPALMITATE] |  |  | slightly diminished responses |  | slightly diminished response
